According to the NIST ThermoML archive (doi:10.1021/je800110r):

Conditions: 313.14 K, Liquid, Vibrating tube method

CCCCCCCCCC [decane]
Conditions	mass density [kg/m3]
6723 kPa	720.2
6742 kPa	720.4
6755 kPa	720.3
6767 kPa	720.4
6785 kPa	720.4
6815 kPa	720.3
6833 kPa	720.3
6865 kPa	720.4
6886 kPa	720.5
6901 kPa	720.4
6948 kPa	720.6
6966 kPa	720.6
6975 kPa	720.6
6989 kPa	720.6
7007 kPa	720.5
7019 kPa	720.6
7031 kPa	720.6
7045 kPa	720.6
7061 kPa	720.6
7077 kPa	720.6
7089 kPa	720.7
7101 kPa	720.6
7118 kPa	720.6
7136 kPa	720.7
7149 kPa	720.6
7165 kPa	720.7
7180 kPa	720.7
7195 kPa	720.7
7209 kPa	720.7
7226 kPa	720.7
7241 kPa	720.8
7252 kPa	720.6
7264 kPa	720.7
7279 kPa	720.8
7292 kPa	720.8
7306 kPa	720.8
7317 kPa	720.7
7332 kPa	720.8
7347 kPa	720.8
7360 kPa	720.9
7375 kPa	720.8
7392 kPa	720.9
7410 kPa	720.8
7423 kPa	720.9
7441 kPa	720.8
7455 kPa	720.9
7473 kPa	720.9
7487 kPa	721
7507 kPa	721
7523 kPa	721
7537 kPa	720.9
7553 kPa	720.9
7569 kPa	721.1
7590 kPa	721
7605 kPa	721
7621 kPa	721.1
7635 kPa	721.1
7652 kPa	721.1
7666 kPa	721.1
7683 kPa	721.1
7702 kPa	721
7717 kPa	721.1
7731 kPa	721.2
7750 kPa	721.2
7768 kPa	721.2
7782 kPa	721.1
7805 kPa	721.2
7820 kPa	721.3
7835 kPa	721.2
7851 kPa	721.3
7873 kPa	721.2
7890 kPa	721.3
7910 kPa	721.2
7922 kPa	721.3
7941 kPa	721.2
7959 kPa	721.4
8144 kPa	721.4
8162 kPa	721.4
8174 kPa	721.5
8184 kPa	721.6
8194 kPa	721.6
8205 kPa	721.5
8220 kPa	721.6
8237 kPa	721.5
8248 kPa	721.5
8262 kPa	721.5
8277 kPa	721.6
8293 kPa	721.5
8309 kPa	721.7
8321 kPa	721.6
8338 kPa	721.7
8352 kPa	721.6
8364 kPa	721.7
8383 kPa	721.6
8395 kPa	721.7
8410 kPa	721.7
8421 kPa	721.7
8435 kPa	721.8
8448 kPa	721.8
8462 kPa	721.7
8482 kPa	721.9
8494 kPa	721.8
8514 kPa	721.7
8524 kPa	721.8
8544 kPa	721.9
8559 kPa	721.8
8579 kPa	721.8
8592 kPa	721.8
8614 kPa	721.8
8629 kPa	721.8
8680 kPa	721.9
8691 kPa	722.1
8725 kPa	722.1
8740 kPa	722
8754 kPa	722
8773 kPa	722
8791 kPa	722
8807 kPa	722.1
8821 kPa	722
8835 kPa	721.9
8858 kPa	722.1
8876 kPa	722.2
8897 kPa	722.1
8911 kPa	722.1
8930 kPa	722.1
8944 kPa	722
8964 kPa	722
8980 kPa	722.1
9004 kPa	722.1
9023 kPa	722.2
9038 kPa	722.2
9053 kPa	722.2
9075 kPa	722.3
9092 kPa	722.2
9106 kPa	722.2
9121 kPa	722.3
9138 kPa	722.3
